{
  "source": "patent US20100172854A1",
  "about": "“ANTIBACTERIAL FORMULATIONS” (priority 2007, published 2010)",
  "test_in_all_cases": "MIC assay",
  "format_in_all_cases": "cell-based",
  "key": {"S. aureus ATCC 12606": {"tested_on": "S. aureus ATCC 12606", "details": "Staphylococcus aureus, ATCC12606", "method": "(§1) The staphylococci were cultured and maintained on Mueller-Hinton Medium (agar and broth) at pH 7.2; cultures were incubated aerobically at 37° C. for 19-20 hours.\n(§2) This is a standard international method for quantitatively assessing the antimicrobial activity of a compound in a liquid medium. The method used a sterile 96-well microtitre plate, capable of holding about 200 μl of liquid per well. The wells contained liquid culture medium and ranges of decreasing concentrations of the relevant test compound in doubling dilutions (e.g. 1000, 500, 250, 125 . . . μg/ml, etc. down to 0.49 μg/ml). The culture media were as described above.\n(§3) The wells were inoculated with a liquid suspension of freshly grown micro-organism and incubated under the conditions described above. After incubation, the microtitre plate was examined visually (with the aid of a light box) for cloudiness in each well, which would indicate microbial growth. The MIC value was recorded as the lowest concentration of test compound required to inhibit microbial growth, i.e. the lowest concentration for which the liquid in the well remained clear.\n(§4) The assays included both negative (culture medium with no micro-organisms) and positive (culture medium plus diluting solvent plus micro-organism) controls."}, "S. aureus CPHL VISA Mu3": {"tested_on": "S. aureus CPHL VISA Mu3", "details": "Staphylococcus aureus", "method": "as §1, §2, §3, §4"}, "[1]": {"tested_on": "S. aureus CPHL GISA HO41340156", "details": "Staphylococcus aureus", "method": "as §1, §2, §3, §4"}, "S. aureus ATCC 12602": {"tested_on": "S. aureus ATCC 12602", "details": "Staphylococcus aureus, ATCC12602", "method": "as §1, §2, §3, §4"}, "[2]": {"tested_on": "Staphylococcus cohnii ATCC 29974", "details": "ATCC29974", "method": "as §1, §2, §3, §4"}, "[3]": {"tested_on": "Staphylococcus hominis ATCC 27844", "details": "ATCC27844", "method": "as §1, §2, §3, §4"}, "[4]": {"tested_on": "Staphylococcus warneri ATCC 27836", "details": "ATCC27836", "method": "as §1, §2, §3, §4"}, "[5]": {"tested_on": "S. epidermidis NCTC 11047", "details": "Staphylococcus epidermidis, NCTC11047", "method": "as §1, §2, §3, §4"}, "S. aureus CPHL EMRSA 15": {"tested_on": "S. aureus CPHL EMRSA 15", "details": "Staphylococcus aureus", "method": "as §1, §2, §3, §4"}, "[6]": {"tested_on": "Staphylococcus haemolyticus ATCC 29970", "details": "ATCC29970", "method": "as §1, §2, §3, §4"}, "S. aureus CPHL EMRSA 17": {"tested_on": "S. aureus CPHL EMRSA 17", "details": "Staphylococcus aureus", "method": "as §1, §2, §3, §4"}, "S. aureus ATCC 12601": {"tested_on": "S. aureus ATCC 12601", "details": "Staphylococcus aureus, ATCC12601", "method": "as §1, §2, §3, §4"}, "S. aureus ATCC 25923": {"tested_on": "S. aureus ATCC 25923", "details": "Staphylococcus aureus, ATCC25923", "method": "as §1, §2, §3, §4"}, "[7]": {"tested_on": "Staphylococcus capitis ATCC 27840", "details": "ATCC27840", "method": "as §1, §2, §3, §4"}, "S. aureus CPHL EMRSA 16": {"tested_on": "S. aureus CPHL EMRSA 16", "details": "Staphylococcus aureus", "method": "as §1, §2, §3, §4"}, "S. aureus NCTC 12493": {"tested_on": "S. aureus NCTC 12493", "details": "Staphylococcus aureus, NCTC12493, resistance phenotype Met", "method": "as §1, §2, §3, §4"}, "S. aureus CPHL VISA Mu50": {"tested_on": "S. aureus CPHL VISA Mu50", "details": "Staphylococcus aureus, resistance phenotype Van (intermediate)", "method": "as §1, §2, §3, §4"}, "S. aureus ATCC 12604": {"tested_on": "S. aureus ATCC 12604", "details": "Staphylococcus aureus, ATCC12604", "method": "as §1, §2, §3, §4"}, "[8]": {"tested_on": "Staphylococcus auricularis ATCC 33753", "details": "ATCC33753", "method": "as §1, §2, §3, §4"}, "S. aureus ATCC 12607": {"tested_on": "S. aureus ATCC 12607", "details": "Staphylococcus aureus, ATCC12607", "method": "as §1, §2, §3, §4"}, "S. aureus ATCC 12600-U": {"tested_on": "S. aureus ATCC 12600-U", "details": "Staphylococcus aureus, ATCC12600", "method": "as §1, §2, §3, §4"}},
  "data": [
    {"smiles": "Cc1cc(Cc2cc(C)cc(C(C)(C)C)c2O)c(O)c(C(C)(C)C)c1", "note": "[AO 2246, 2,2′-methylene-bis(4-methyl-6-tert-butylphenol)]", "values": [
      {"measurement": "MIC", "setting": "S. aureus ATCC 12606", "value": 1.95, "unit": "µg/mL"},
      {"measurement": "MIC", "setting": "S. aureus CPHL VISA Mu3", "value": 1.95, "unit": "µg/mL"},
      {"measurement": "MIC", "setting": "[1]", "value": 1.95, "unit": "µg/mL"},
      {"measurement": "MIC", "setting": "S. aureus ATCC 12602", "value": 1.95, "unit": "µg/mL"},
      {"measurement": "MIC", "setting": "[2]", "value": 3.9, "unit": "µg/mL"},
      {"measurement": "MIC", "setting": "[3]", "value": 7.8, "unit": "µg/mL"},
      {"measurement": "MIC", "setting": "[4]", "value": 15.6, "unit": "µg/mL"},
      {"measurement": "MIC", "setting": "[5]", "value": 3.9, "unit": "µg/mL"},
      {"measurement": "MIC", "setting": "S. aureus CPHL EMRSA 15", "value": 1.95, "unit": "µg/mL"},
      {"measurement": "MIC", "setting": "[6]", "value": 3.9, "unit": "µg/mL"},
      {"measurement": "MIC", "setting": "S. aureus CPHL EMRSA 17", "value": 1.95, "unit": "µg/mL"},
      {"measurement": "MIC", "setting": "S. aureus ATCC 12601", "value": 1.95, "unit": "µg/mL"},
      {"measurement": "MIC", "setting": "S. aureus ATCC 25923", "value": 7.8, "unit": "µg/mL"},
      {"measurement": "MIC", "setting": "[7]", "value": 3.9, "unit": "µg/mL"},
      {"measurement": "MIC", "setting": "S. aureus CPHL EMRSA 16", "value": 1.95, "unit": "µg/mL"},
      {"measurement": "MIC", "setting": "S. aureus NCTC 12493", "value": 0.98, "unit": "µg/mL"},
      {"measurement": "MIC", "setting": "S. aureus CPHL VISA Mu50", "value": 0.98, "unit": "µg/mL"},
      {"measurement": "MIC", "setting": "S. aureus ATCC 12604", "value": 1.95, "unit": "µg/mL"},
      {"measurement": "MIC", "setting": "[8]", "value": 1.95, "unit": "µg/mL"},
      {"measurement": "MIC", "setting": "S. aureus ATCC 12607", "value": 1.95, "unit": "µg/mL"},
      {"measurement": "MIC", "setting": "S. aureus ATCC 12600-U", "value": 0.98, "unit": "µg/mL"}
    ]}
  ]
}
